Where two headings read alike, the source gives them in different places.
Columns and labels:
[1] = tested on: DENV-4; assay: Viral yield assay against DENV-4 in Vero cells; assay type: cell-based; settings: Dengue virus
Procedure, shortened: (§1)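 Infect Vero cells with virus (MOI 0.1), add compound or DMSO, incubate at 37° C, collect progeny at 48 hours post infection, then titrate on Vero cells to obtain EC50.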

[2] = tested on: DENV-1; assay: Viral yield assay against DENV-1 in Vero cells; assay type: cell-based; settings: Dengue virus
Procedure, shortened: as §1

[3] = tested on: DENV-3; assay: Viral yield assay against DENV-3 in Vero cells; assay type: cell-based; settings: Dengue virus
Procedure, shortened: as §1

[4] = tested on: Dengue-2 (Strain New Guinea C); assay: Viral yield assay against Dengue-2 in Vero cells; assay type: cell-based, Dengue virus; settings: Dengue virus, read-out: Activity (EC50 in μM) DENV-2
Procedure, shortened: as §1

[5] = DENV2, viral yield assay, Vero cells, MOI 0.1, 48 hours post infection

COc1ccc(-c2ccc3c(N)c(C(=O)Nc4ccc(C(C)=O)cc4)sc3n2)cc1 [Compound 494, N-(4-acetylphenyl)-3-amino-6-(4-methoxyphenyl)thieno[2,3-b]pyridine-2-carboxamide]
EC50 ([1]; DENV4, viral yield assay): < 5 µM
EC50 ([2]; DENV1, viral yield assay): < 5 µM
EC50 ([3]; DENV3, viral yield assay): 5 to 25 µM
EC50 ([4]; DENV2, Vero, 48 h): < 5 µM

O=C(O)CNc1c(C(=O)Nc2nnc(-c3ccccc3)s2)sc2nc3c(cc12)CCCCC3 [Compound 293, 2-((2-((5-phenyl-1,3,4-thiadiazol-2-yl)carbamoyl)-6,7,8,9-tetrahydro-5H-cyclohepta[b]thieno[3,2-e]pyridin-3-yl)amino)acetic acid]
EC50 ([1]; DENV4): < 5 µM
EC50 ([2]; DENV1): < 5 µM
EC50 ([3]; DENV3): < 5 µM
EC50 ([4]; DENV2, Vero cells): < 5 µM

COc1ccc(NC(=O)c2sc3nc(-c4ccc5c(c4)OCO5)ccc3c2N)c(OC)c1 [Compound 651, 3-amino-6-(1,3-benzodioxol-5-yl)-N-(2,4-dimethoxyphenyl)thieno[2,3-b]pyridine-2-carboxamide]
EC50 ([1]; DENV4, viral yield assay): < 5 µM
EC50 ([2]; DENV1, viral yield assay): < 5 µM
EC50 ([3]; DENV3, viral yield assay): < 5 µM
EC50 [4, 5]: < 5 µM

COc1ccc(-c2ccc3c(N)c(C(=O)Nc4ccc(C)cc4Br)sc3n2)cc1OC [Compound 576, 3-amino-N-(2-bromo-4-methyl-phenyl)-6-(3,4-dimethoxyphenyl)thieno[2,3-b] pyridine-2-carboxamide]
EC50 ([1]; DENV4, viral yield assay): < 5 µM
EC50 ([2]; DENV1, viral yield assay): < 5 µM
EC50 ([3]; DENV3, viral yield assay): < 5 µM
EC50 [4, 5]: < 5 µM

Nc1c(C(=O)Nc2ccc(F)cc2)sc2nc(-c3ccc(F)cc3)ccc12 [Compound 490, 3-amino-N,6-bis(4-fluorophenyl) thieno[2,3-b]pyridine-2-carboxamide]
EC50 ([1]; DENV4, viral yield assay): < 5 µM
EC50 ([2]; DENV1, viral yield assay): < 5 µM
EC50 ([3]; DENV3, viral yield assay): 5 to 25 µM
EC50 [4, 5]: < 5 µM

Nc1c(C(=O)Nc2ccc(OC(F)(F)F)cc2)sc2nc(-c3ccncc3)ccc12 [Compound 417, 3-amino-6-(4-pyridyl)-N-[4-(trifluoromethoxy)phenyl]thieno[2,3-b] pyridine-2-carboxamide]
EC50 ([1]; DENV4, viral yield assay): < 5 µM
EC50 ([2]; DENV1, viral yield assay): < 5 µM
EC50 ([3]; DENV3, viral yield assay): < 5 µM
EC50 [4, 5]: < 5 µM

CN(C(=O)c1sc2nc(-c3cccs3)ccc2c1N)c1cccc(C(F)(F)F)c1 [Compound 322, 3-amino-N-methyl-6-(2-thienyl)-N-[3-(trifluoromethyl)phenyl]thieno[2,3-b]pyridine-2-carboxamide]
EC50 ([1]; DENV4, viral yield assay): < 5 µM
EC50 ([2]; DENV1, viral yield assay): < 5 µM
EC50 ([3]; DENV3, viral yield assay): < 5 µM
EC50 [4, 5]: < 5 µM

COc1ccc(-c2ccc3c(N)c(C(=O)Nc4ccc(C)c(F)c4)sc3n2)cc1OC [Compound 533, 3-amino-6-(3,4-dimethoxyphenyl)-N-(3-fluoro-4-methyl-phenyl)thieno[2,3-b] pyridine-2-carboxamide]
EC50 ([1]; DENV4, viral yield assay): < 5 µM
EC50 ([2]; DENV1, viral yield assay): < 5 µM
EC50 ([3]; DENV3, viral yield assay): < 5 µM
EC50 [4, 5]: < 5 µM

Nc1c(C(=O)Nc2nnc(-c3ccccc3)s2)sc2nc(Cl)ccc12 [Compound 292]
EC50 ([1]; DENV4, viral yield assay): < 5 µM
EC50 ([2]; DENV1, viral yield assay): < 5 µM
EC50 ([3]; DENV3, viral yield assay): < 5 µM
EC50 [4, 5]: < 5 µM

COc1ccc(-c2ccc3c(N)c(C(=O)Nc4cccc(C(F)(F)F)c4)sc3n2)cc1 [Compound 472, 3-amino-6-(4-methoxyphenyl)-N-[3-(trifluoromethyl)phenyl]thieno[2,3-b] pyridine-2-carboxamide]
EC50 ([1]; DENV4, viral yield assay): < 5 µM
EC50 ([2]; DENV1, viral yield assay): < 5 µM
EC50 ([3]; DENV3, viral yield assay): < 5 µM
EC50 [4, 5]: < 5 µM

Nc1c(C(=O)Nc2ccc(C(F)F)cc2)sc2nc(-c3ccc(Cl)cc3)ccc12 [Compound 337, 3-amino-6-(4-chlorophenyl)-N-[4-(difluoromethyl)phenyl]thieno[2,3-b]pyridine-2-carboxamide]
EC50 ([1]; DENV4, viral yield assay): < 5 µM
EC50 ([2]; DENV1, viral yield assay): < 5 µM
EC50 ([3]; DENV3, viral yield assay): < 5 µM
EC50 [4, 5]: < 5 µM

Nc1c(C(=O)Nc2ccc(C(F)(F)F)cc2)sc2nc(-c3ccc(F)cc3)ccc12 [Compound 455, 3-amino-6-(4-fluorophenyl)-N-[4-(trilfuoromethyl)phenyl]thieno[2,3-b] pyridine-2-carboxamide]
EC50 ([1]; DENV4, viral yield assay): 5 to 25 µM
EC50 ([2]; DENV1, viral yield assay): < 5 µM
EC50 ([3]; DENV3, viral yield assay): < 5 µM
EC50 [4, 5]: < 5 µM

Cc1ccc(NC(=O)c2sc3nc(-c4cccs4)ccc3c2N)cc1C [Compound 414, 3-amino-N-(3,4-dimethylphenyl)-6-(2-thienyl)thieno[2,3-b]pyridine-2-carboxamide]
EC50 ([1]; DENV4, viral yield assay): < 5 µM
EC50 ([2]; DENV1, viral yield assay): < 5 µM
EC50 ([3]; DENV3, viral yield assay): < 5 µM
EC50 [4, 5]: < 5 µM

O=C(O)CCC(=O)Nc1c(C(=O)Nc2cccc(C(F)(F)F)c2)sc2nc(-c3cccs3)ccc12 [Compound 311, 4-oxo-4-[[6-(2-thienyl)-2-[[3-(trifluoromethyl)phenyl]carbamoyl]thieno[2,3-b]pyridin-3-yl]amino]butanoic acid]
EC50 ([1]; DENV4): < 5 µM
EC50 ([2]; DENV1): < 5 µM
EC50 ([3]; DENV3): < 5 µM
EC50 ([4]; DENV2, Vero cells): < 5 µM

Nc1c(C(=O)Nc2ccc3ccccc3c2)sc2nc3c(cc12)CCCCC3 [Compound 365, 3-amino-N-(naphthalen-2-yl)-6,7,8,9-tetrahydro-5H-cyclohexpta[b]thieno[3,2-e] pyridine-2-carboxamide]
EC50 ([1]; DENV4, viral yield assay): > 25 µM
EC50 ([2]; DENV1, viral yield assay): 5 to 25 µM
EC50 ([3]; DENV3, viral yield assay): 5 to 25 µM
EC50 [4, 5]: < 5 µM

O=C(O)CNc1c(C(=O)Nc2cccc(C(F)(F)F)c2)sc2nc(-c3cccs3)ccc12 [Compound 305, 2-[[6-(2-thienyl)-2-[[3-(trifluoromethyl)phenyl]carbamoyl]thieno[2,3-b]pyridin-3-yl]amino]acetic acid]
EC50 ([1]; DENV4): < 5 µM
EC50 ([2]; DENV1): < 5 µM
EC50 ([3]; DENV3): 5 to 25 µM
EC50 ([4]; DENV2, Vero cells): < 5 µM

Nc1c(C(=O)Nc2ccc(OC(F)(F)F)cc2)sc2nc(-c3ccc(Cl)cc3)ccc12 [Compound 331, 3-amino-6-(4-chlorophenyl)-N-[4-(trifluoromethoxy)phenyl]thieno[2,3-b]pyridine-2-carboxamide]
EC50 ([1]; DENV4, viral yield assay): 5 to 25 µM
EC50 ([2]; DENV1, viral yield assay): < 5 µM
EC50 ([3]; DENV3, viral yield assay): < 5 µM
EC50 [4, 5]: < 5 µM

NCC(=O)Nc1c(C(=O)Nc2nnc(-c3ccccc3)s2)sc2nc3c(cc12)CCCCC3 [Compound 296, 3-(2-aminoacetamido)-N-(5-phenyl-1,3,4-thiadiazol-2-yl)-6,7,8,9-tetrahydro-5H-cyclohepta[b]thieno[3,2-e]pyridine-2-carboxamide]
EC50 ([1]; DENV4): < 5 µM
EC50 ([2]; DENV1): < 5 µM
EC50 ([3]; DENV3): < 5 µM
EC50 ([4]; DENV2, Vero cells): < 5 µM

Nc1c(C(=O)Nc2ccc(Cl)c(Cl)c2)sc2nc(-c3cccs3)ccc12 [Compound 413, 3-amino-N-(3,4-dichlorophenyl)-6-(2-thienyl)thieno[2,3-b]pyridine-2-carboxamide]
EC50 ([1]; DENV4, viral yield assay): < 5 µM
EC50 ([2]; DENV1, viral yield assay): < 5 µM
EC50 ([3]; DENV3, viral yield assay): < 5 µM
EC50 [4, 5]: < 5 µM

COc1ccc(-c2ccc3c(N)c(C(=O)Nc4ccc(Br)cc4F)sc3n2)cc1OC [Compound 628, 3-amino-N-(4-bromo-2-fluoro-phenyl)-6-(3,4-dimethoxyphenyl)thieno[2,3-b] pyridine-2-carboxamide]
EC50 ([1]; DENV4, viral yield assay): < 5 µM
EC50 ([2]; DENV1, viral yield assay): < 5 µM
EC50 ([3]; DENV3, viral yield assay): < 5 µM
EC50 [4, 5]: < 5 µM

Nc1c(C(=O)Nc2cccc(C(F)(F)F)c2)sc2nc3c(cc12)CCCCC3 [Compound 368, 3-amino-N-(3-(trifluoromethyl)phenyl)-6,7,8,9-tetrahydro-5H-cyclohepta[b]thieno [3,2-e]pyridine-2-carboxamide]
EC50 ([1]; DENV4, viral yield assay): < 5 µM
EC50 ([2]; DENV1, viral yield assay): < 5 µM
EC50 ([3]; DENV3, viral yield assay): < 5 µM
EC50 [4, 5]: < 5 µM

COc1cccc(-c2ccc3c(N)c(C(=O)Nc4ccccc4C(F)(F)F)sc3n2)c1 [Compound 449, 3-amino-6-(3-methoxyphenyl)-N-[2-(trifluoromethyl)phenyl]thieno[2,3-b] pyridine-2-carboxamide]
EC50 ([1]; DENV4, viral yield assay): < 5 µM
EC50 ([2]; DENV1, viral yield assay): < 5 µM
EC50 ([3]; DENV3, viral yield assay): < 5 µM
EC50 [4, 5]: < 5 µM

CSc1ccc(NC(=O)c2sc3nc(-c4ccc(F)cc4)ccc3c2N)cc1 [Compound 625, 3-amino-6-(4-fluorophenyl)-N-(4-methylsulfanylphenyl)thieno[2,3-b] pyridine-2-carboxamide]
EC50 ([1]; DENV4, viral yield assay): > 25 µM
EC50 ([2]; DENV1, viral yield assay): < 5 µM
EC50 ([3]; DENV3, viral yield assay): < 5 µM
EC50 [4, 5]: < 5 µM

Cc1ccc(C)c(NC(=O)c2sc3nc(-c4cccs4)ccc3c2N)c1 [Compound 438, 3-amino-N-(2,5-dimethylphenyl)-6-(2-thienyl)thieno[2,3-b]pyridine-2-carboxamide]
EC50 ([1]; DENV4, viral yield assay): < 5 µM
EC50 ([2]; DENV1, viral yield assay): < 5 µM
EC50 ([3]; DENV3, viral yield assay): < 5 µM
EC50 [4, 5]: < 5 µM

O=C(O)CC(=O)Nc1c(C(=O)Nc2cccc(C(F)(F)F)c2)sc2nc(-c3cccs3)ccc12 [Compound 302, 3-oxo-3-[[6-(2-thienyl)-2-[[3-(trifluoromethyl)phenyl]carbamoyl]thieno[2,3-b]pyridin-3-yl]amino]propanoic acid]
EC50 ([1]; DENV4): < 5 µM
EC50 ([2]; DENV1): < 5 µM
EC50 ([3]; DENV3): 5 to 25 µM
EC50 ([4]; DENV2, Vero cells): < 5 µM

CCCCSc1ccccc1NC(=O)c1sc2nc(-c3cccc(OC)c3)ccc2c1N [Compound 572, 3-amino-N-(2-butylsulfanylphenyl)-6-(3-methoxyphenyl)thieno[2,3-b]pyridine-2-carboxamide]
EC50 ([1]; DENV4, viral yield assay): < 5 µM
EC50 ([2]; DENV1, viral yield assay): < 5 µM
EC50 ([3]; DENV3, viral yield assay): < 5 µM
EC50 [4, 5]: < 5 µM

Nc1c(C(=O)Nc2ccc(OC(F)(F)F)cc2)sc2nc(-c3cccs3)ccc12 [Compound 428, 3-amino-6-(2-thienyl)-N-[4-(trifluoromethoxy)phenyl]thieno[2,3-b] pyridine-2-carboxamide]
EC50 ([1]; DENV4, viral yield assay): < 5 µM
EC50 ([2]; DENV1, viral yield assay): < 5 µM
EC50 ([3]; DENV3, viral yield assay): < 5 µM
EC50 [4, 5]: < 5 µM

Nc1c(C(=O)Nc2ccc(F)cc2)sc2nc(-c3ccc(Cl)cc3)ccc12 [Compound 646, 3-amino-6-(4-chlorophenyl)-N-(4-fluorophenyl)thieno[2,3-b]pyridine-2-carboxamide]
EC50 ([1]; DENV4, viral yield assay): < 5 µM
EC50 ([2]; DENV1, viral yield assay): < 5 µM
EC50 ([3]; DENV3, viral yield assay): < 5 µM
EC50 [4, 5]: < 5 µM

— patent publication US20170121344A1 (Siga Technologies, Inc., priority 2009, published 2017)
